Measurements from patent publication US8642799B2, “Cysteine protease inhibitors for the treatment of parasitic diseases” (Merck Canada Inc., priority 2007, dated 2014).

Target: cruzipain (Trypanosoma cruzi, UniProt P25779)
Test: biochemical
Details: 50 pM cruzipain, pH 5.5, 15 minutes preincubation, 2 μM Z-Phe-Arg-AMC substrate
Experimental: The assay solutions were mixed and incubated for 15 minutes at room temperature prior to the addition of 2 μM of Z-Phe-Arg-AMC substrate. […] Percent of inhibition were calculated by fitting experimental values to standard mathematical model for dose response curve.

Sequence of cruzipain (P25779 123-467): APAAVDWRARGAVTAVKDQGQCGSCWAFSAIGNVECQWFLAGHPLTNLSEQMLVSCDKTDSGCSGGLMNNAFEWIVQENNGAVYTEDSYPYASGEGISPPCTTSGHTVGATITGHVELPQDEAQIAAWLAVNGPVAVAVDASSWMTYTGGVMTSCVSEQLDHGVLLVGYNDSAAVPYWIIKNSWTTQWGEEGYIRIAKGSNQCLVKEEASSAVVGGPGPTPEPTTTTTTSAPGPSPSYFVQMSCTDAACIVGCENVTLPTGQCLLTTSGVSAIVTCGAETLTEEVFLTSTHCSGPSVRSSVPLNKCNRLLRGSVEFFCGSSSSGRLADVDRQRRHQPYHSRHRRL

SMILES | IC50 [nM]
CC(C)(F)C[C@H](N[C@@H](c1ccc(-c2ccc(S(C)(=O)=O)cc2)cc1)C(F)(F)F)C(=O)N[C@H](C#N)Cc1ccc(C#N)cc1 [Example 3, (S)-4-Fluoro-4-methyl-2-[(S)-2,2,2-trifluoro-1-(4′-methanesulfonyl-biphenyl-4-yl)-ethylamino]-pentanoic acid [(S)-1-cyano-2-(4-cyano-phenyl)-ethyl]-amide] | 1.5
CC(C)(F)C[C@H](N[C@@H](c1ccc(-c2ccc(S(C)(=O)=O)cc2Cl)cc1)C(F)(F)F)C(=O)NC(C#N)Cc1ccc(C#N)cc1Cl (stereo partly drawn) [Example 6, (S)-2-[(S)-1-(2′-Chloro-4′-methanesulfonyl-biphenyl-4-yl)-2,2,2-trifluoro-ethylamino]-4-fluoro-4-methyl-pentanoic acid [2-(2-chloro-4-cyano-phenyl)-1-cyano-ethyl]-amide] | 1.2
CC(C)(F)C[C@H](N[C@@H](c1ccc(-c2ccc(S(C)(=O)=O)cc2)cc1)C(F)(F)F)C(=O)N[C@H](C#N)Cc1ccc(-c2cccnc2)cc1 [Example 14, (S)-4-Fluoro-4-methyl-2-[(S)-2,2,2-trifluoro-1-(4′-methanesulfonyl-biphenyl-4-yl)-ethylamino]-pentanoic acid [(S)-1-cyano-2-(4-pyridin-3-yl-phenyl)-ethyl]-amide] | 7
CCOC(=O)c1ccc(C[C@@H](C#N)NC(=O)[C@H](CC(C)(C)F)N[C@@H](c2ccc(-c3ccc(S(C)(=O)=O)cc3)cc2)C(F)(F)F)cc1 [Example 15, 4-((S)-2-Cyano-2-{(S)-4-fluoro-4-methyl-2-[(S)-2,2,2-trifluoro-1-(4′-methanesulfonyl-biphenyl-4-yl)-ethylamino]-pentanoylamino}-ethyl)-benzoic acid ethyl ester] | 4.4
CC(C)(F)C[C@H](N[C@@H](c1ccc(-c2ccc(S(C)(=O)=O)cc2)cc1)C(F)(F)F)C(=O)N[C@H](C#N)Cc1ccc(F)cc1 [Example 16, (S)-4-Fluoro-4-methyl-2-[(S)-2,2,2-trifluoro-1-(4′-methanesulfonyl-biphenyl-4-yl)-ethylamino]-pentanoic acid [(S)-cyano-(4-fluoro-benzyl)-methyl]-amide] | 6.1
CC(C)(F)C[C@H](N[C@@H](c1ccc(-c2ccc(S(C)(=O)=O)cc2)cc1)C(F)(F)F)C(=O)N[C@H](C#N)Cc1ccc(Cl)cc1Cl [Example 18, (S)-4-Fluoro-4-methyl-2-[(S)-2,2,2-trifluoro-1-(4′-methanesulfonyl-biphenyl-4-yl)-ethylamino]-pentanoic acid [(S)-1-cyano-2-(2,4-dichloro-phenyl)-ethyl]-amide] | 1.3
CC(C)(F)C[C@H](N[C@@H](c1ccc(-c2ccc(S(C)(=O)=O)cc2)cc1)C(F)(F)F)C(=O)N[C@H](C#N)Cc1ccc(C(F)(F)F)cc1 [Example 19, (S)-4-Fluoro-4-methyl-2-[(S)-2,2,2-trifluoro-1-(4′-methanesulfonyl-biphenyl-4-yl)-ethylamino]-pentanoic acid [(S)-1-cyano-2-(4-trifluoromethyl-phenyl)-ethyl]-amide] | 12.4
CC(C)(F)C[C@H](N[C@@H](c1ccc(-c2ccc([C@@H](O)C(F)F)cc2)cc1)C(F)(F)F)C(=O)N[C@H](C#N)Cc1ccc(S(C)(=O)=O)cc1 [Example 20, (S)-2-{(S)-1-[4′-((R)-2,2-Difluoro-1-hydroxy-ethyl)-biphenyl-4-yl]-2,2,2-trifluoro-ethylamino}-4-fluoro-4-methyl-pentanoic acid [(S)-1-cyano-2-(4-methanesulfonyl-phenyl)-ethyl]-amide] | 8.4
CC(C)(F)C[C@H](N[C@@H](c1ccc(-c2ccc(-c3ccc(S(C)(=O)=O)cc3)cc2)cc1)C(F)(F)F)C(=O)N[C@H](C#N)Cc1ccccc1 [Example 24, (S)-4-Fluoro-4-methyl-2-[(S)-2,2,2-trifluoro-1-(4-methanesulfonyl-[1,1′;4′,1″]terphenyl-4″-yl)-ethylamino]-pentanoic acid ((S)-benzyl-cyano-methyl)-amide] | 16
CSc1ccc(-c2ccc([C@H](N[C@@H](CC(C)(C)F)C(=O)N[C@H](C#N)Cc3ccc(C#N)cc3F)C(F)(F)F)cc2)cc1 [Example 26, (S)-4-Fluoro-4-methyl-2-[(S)-2,2,2-trifluoro-1-(4′-methylsulfanyl-biphenyl-4-yl)-ethylamino]-pentanoic acid [(S)-1-cyano-2-(4-cyano-2-fluoro-phenyl)-ethyl]-amide] | 4.2
CC(C)(F)C[C@H](N[C@@H](c1ccc(-c2ccc(C3(C#N)CC3)cc2)cc1)C(F)(F)F)C(=O)N[C@H](C#N)Cc1ccccc1 [Example 27, (S)-2-{(S)-1-[4′-(1-Cyano-cyclopropyl)-biphenyl-4-yl]-2,2,2-trifluoro-ethylamino}-4-fluoro-4-methyl-pentanoic acid ((S)-1-cyano-2-phenyl-ethyl)-amide] | 10.4
CC(C)(F)C[C@H](N[C@@H](c1ccc(-c2ccc(C3(c4ncon4)CC3)cc2)cc1)C(F)(F)F)C(=O)N[C@H](C#N)Cc1ccccc1 [Example 29, (S)-4-Fluoro-4-methyl-2-{(S)-2,2,2-trifluoro-1-[4′-(1-[1,2,4]oxadiazol-3-yl-cyclopropyl)-biphenyl-4-yl]-ethylamino}-pentanoic acid ((S)-1-cyano-2-phenyl-ethyl)-amide] | 20
CC(C)(F)C[C@H](N[C@@H](c1ccc(-c2ccc(S(N)(=O)=O)cc2)cc1)C(F)(F)F)C(=O)N[C@H](C#N)Cc1ccccc1 [Example 31, (S)-4-Fluoro-4-methyl-2-[(S)-2,2,2-trifluoro-1-(4′-sulfamoyl-biphenyl-4-yl)-ethylamino]-pentanoic acid ((S)-1-cyano-2-phenyl-ethyl)-amide] | 16
CC(C)(F)C[C@H](N[C@@H](c1ccc(-c2ccc(S(C)(=O)=O)cc2)cc1)C(F)(F)F)C(=O)NC(C#N)Cc1ccc(C(F)(F)F)cc1F (stereo partly drawn) [Example 33, (S)-4-Fluoro-4-methyl-2-[(S)-2,2,2-trifluoro-1-(4′-methanesulfonyl-biphenyl-4-yl)-ethylamino]-pentanoic acid [cyano-(2-fluoro-4-trifluoromethyl-benzyl)-methyl]-amide] | 3.5
CC(C)(F)C[C@H](N[C@@H](c1ccc(-c2ccc(S(C)(=O)=O)cc2)cc1)C(F)(F)F)C(=O)NC(C#N)Cc1ccc(F)cc1F (stereo partly drawn) [Example 34, (S)-4-Fluoro-4-methyl-2-[(S)-2,2,2-trifluoro-1-(4′-methanesulfonyl-biphenyl-4-yl)-ethylamino]-pentanoic acid [cyano-(2,4-difluoro-benzyl)-methyl]-amide] | 2.6
Cn1cccc1-c1ccc([C@H](N[C@@H](CC(C)(C)F)C(=O)N[C@H](C#N)Cc2ccccc2)C(F)(F)F)cc1 [Example 35, (S)-4-Fluoro-4-methyl-2-{(S)-2,2,2-trifluoro-1-[4-(1-methyl-1H-pyrrol-2-yl)-phenyl]-ethylamino}-pentanoic acid ((S)-1-cyano-2-phenyl-ethyl)-amide] | 12.2

Molecules with a lower IC50, results first:

IC50 [nM] | SMILES
0.14 | CS(=O)(=O)c1ccc(-c2ccc([C@H](N[C@@H](CC(Cl)Cl)C(=O)N[C@H](C#N)Cc3ccc(C#N)cc3F)C(F)(F)F)cc2)cc1 [Example 1, (S)-4,4-Dichloro-N-[(S)-cyano-(4-cyano-2-fluoro-benzyl)-methyl]-2-[(S)-2,2,2-trifluoro-1-(4′-methanesulfonyl-biphenyl-4-yl)-ethylamino]-butyramide]
0.9 | CC(C)(F)C[C@H](N[C@@H](c1ccc(-c2ccc(S(C)(=O)=O)cc2Cl)cc1)C(F)(F)F)C(=O)NC(C#N)Cc1ccc(C#N)cc1F (stereo partly drawn) [Example 7, (S)-2-[(S)-1-(2′-Chloro-4′-methanesulfonyl-biphenyl-4-yl)-2,2,2-trifluoro-ethylamino]-4-fluoro-4-methyl-pentanoic acid [1-cyano-2-(4-cyano-2-fluoro-phenyl)-ethyl]-amide]
0.2 | CC(C)C[C@H](N[C@@H](c1ccc(-c2ccc(S(C)(=O)=O)cc2)cc1)C(F)(F)F)C(=O)NC(C#N)Cc1ccc(C#N)cc1 (stereo partly drawn) [Example 8, (S)-4-Methyl-2-[(S)-2,2,2-trifIuoro-1-(4′-methanesulfonyl-biphenyl-4-yl)-ethylamino]-pentanoic acid [1-cyano-2-(4-cyano-phenyl)-ethyl]-amide]
0.6 | CC(C)C[C@H](N[C@@H](c1ccc(Br)cc1)C(F)(F)F)C(=O)N[C@H](C#N)Cc1ccc(S(C)(=O)=O)cc1 [Example 9, (S)-2-[(S)-1-(4-Bromo-phenyl)-2,2,2-trifluoro-ethylamino]-4-methyl-pentanoic acid [(S)-1-cyano-2-(4-methanesulfonyl-phenyl)-ethyl]-amide]
0.9 | CC(C)(F)C[C@H](N[C@@H](c1ccc(-c2ccc(S(C)(=O)=O)cc2)cc1)C(F)(F)F)C(=O)N[C@H](C#N)Cc1ccccc1F [Example 17, (S)-Fluoro-4-methyl-2-[(S)-2,2,2-trifluoro-1-(4′-methanesulfonyl-biphenyl-4-yl)-ethylamino]-pentanoic acid [(S)-1-cyano-2-(2-fluoro-phenyl)-ethyl]-amide]
0.94 | CC(C)C[C@H](N[C@@H](c1ccc(Br)cc1)C(F)(F)F)C(=O)N[C@H](C#N)Cc1ccc(C#N)cc1 [Example 21, (S)-2-[(S)-1-(4-Bromo-phenyl)-2,2,2-trifluoro-ethylamino]-4-methyl-pentanoic acid [(S)-1-cyano-2-(4-cyano-phenyl)-ethyl]-amide]
0.75 | C[S+]([O-])c1ccc(-c2ccc([C@H](N[C@@H](CC(C)(C)F)C(=O)N[C@H](C#N)Cc3ccc(C#N)cc3F)C(F)(F)F)cc2)cc1 (stereo partly drawn) [Example 25, (S)-4-Fluoro-4-methyl-2-[(S)-2,2,2-trifluoro-1-(4′-methanesulfinyl-biphenyl-4-yl)-ethylamino]-pentanoic acid [(S)-1-cyano-2-(4-cyano-2-fluoro-phenyl)-ethyl]-amide]
0.9 | CC(C)(F)C[C@H](N[C@@H](c1ccc(-c2ccc([C@@H](O)C(F)F)cc2)cc1)C(F)(F)F)C(=O)N[C@H](C#N)Cc1ccc(C#N)cc1F [Example 32, (S)-2-{(S)-1-[4′-((R)-2,2-Difluoro-1-hydroxy-ethyl)-biphenyl-4-yl]-2,2,2-trifluoro-ethylamino}-4-fluoro-4-methyl-pentanoic acid [(S)-cyano-(4-cyano-2-fluoro-benzyl)-methyl]-amide]
